Data as given in patent US7645595B2, “Method of production of artificial skin” (Shiseido Company, Ltd., priority 2000, dated 2010).

Legend:
[1] = tested on: artificial skin (skin model: contracted collagen gel with human dermal fibroblasts plus epidermal keratinocytes); experiment: Artificial skin culture with matrix metalloproteinase inhibitor: basement membrane formation seen in cross-section (Example 1, FIG. 1); assay type: cell-based; conditions: cultured 2 weeks, versus control without inhibitor
Experimental: Collagen gel was obtained by preparing 10 ml of a collagen solution of suspended fibroblasts (0.3 to 1×10^5 cells/ml) originating in human dermis (product I-AC of Koken Co., Ltd. was used for the collagen) on ice followed by gelling the collagen at 37° C. in a 60 mm Petri dish. Next, the gel was peeled from the walls of the Petri dish and the collagen gel was contracted in a CO2 incubator.
This contracted collagen gel equivalent to dermis was placed on a metal mesh and a glass ring (inner diameter: 12 mm) was placed over this gel. 0.4 ml of a suspension of epidermal keratinocytes (1×10^6/ml) (mixed medium of KGM-DMEM containing 5% fetal calf serum (1:1)) were placed inside the glass ring to prevent leakage of liquid. After adhering keratinocytes in a CO2 incubator overnight, the ring was removed on the following day.
After inoculating the epidermic cells, the medium was changed to that containing either (1) 10 μM CGS27023A (matrix metalloproteinase inhibitor) or (2) 300 μM MMP-inhibitor (p-NH2-Bz-Gly-Pro-D-Leu-D-Ala-NHOH (FN-437) (BBRC, 1994, 199, p. 1442-1446) (acquired from Cabbiochem. Novabiochem Corporation) (matrix metalloproteinase inhibitor)) starting in the first week, and then replaced with medium containing the same type and same concentration of matrix metalloproteinase inhibitor every 2-3 days after that and cultured for 2 weeks. […]

[2] = tested on: Skin Model (artificial skin); basement membrane components laminin 5, type IV collagen, type VII collagen; experiment: Artificial skin culture with MMP inhibitor and matrix protein production promoting agent: H&E staining and immunostaining for LN5, IVC, VIIC (Example 2, Table 1, FIG. 2-4); assay type: cell-based, human; conditions: CGS27023A 10 μM, TGFa/TGFb1 10 ng/ml, versus control
Experimental: Although the same method as Example 1 was repeated, the following substances were used as test substances. • (1) 10 μM matrix metalloproteinase inhibitor CGS27023A only; • (2) 10 μM matrix metalloproteinase inhibitor CGS27023A and 10 ng/ml of matrix […] protein production promoting agent, Transforming Growth Factor α (TGFa); • (3) 10 μM matrix metalloproteinase inhibitor CGS27023A and 10 ng/ml of matrix protein production promoting agent, Transforming Growth Factor β1 (TGFb1); • (4) 10 μM matrix metalloproteinase inhibitor CGS27023A, 10 ng/ml of matrix protein production promoting agent, Transforming Growth Factor α (TGFa) and 10 ng/ml of Transforming Growth Factor β1 (TGFb1); and • (5) culturing of a control to which none of the above were added. The formed artificial skin was stained by hematoxylin-eosin (H & E) and immunostaining (using anti-laminin 5 (LN5) antibody, anti-type IV collagen (IVC) antibody, and anti-type VII collagen (VIIC) antibody). Culturing was carried out in the same manner as above using the following plant extracts instead of the above matrix metalloproteinase inhibitor CGS27023A.

Row | Compound | Promotion of basement membrane formation (FIG. 1) ([1]; 300 μM in medium) | Promotion of basement membrane formation (FIG. 1) ([1]; 10 μM in medium) | Adhesion between epidermis and dermis [2]
1 | p-NH2-Bz-Gly-Pro-D-Leu-Ala-NHOH [MMP-inhibitor] | promotion of basement membrane formation was clearly observed |  | 
2 | COc1ccc(S(=O)(=O)N(Cc2cccnc2)[C@@H](C(=O)NO)C(C)C)cc1.Cl [CGS27023A, N-hydroxy-2(R)-[[(4-methoxyphenyl)sulfonyl](3-picolyl)amino]-3-methylbutanamide hydrochloride] |  | promotion of basement membrane formation was clearly observed | adhesion between the epidermis and dermis was clear
